Results taken from patent US20070219186A1, “Pyrazolo[1,5-A]pyrimidine derivatives and methods of use thereof” (priority 2006, published 2007).
Like-named read-outs stand apart in the source and are kept apart here.

Target: T1, human B-Raf (Homo sapiens, UniProt P15056)
T1 construct: Flag; GST; made in house; host or cells: Sf9 insect cells (B-Raf); E. coli (MEK1-GST)
Test: B-Raf Kinase to MEK1 ELISA
Assay type: biochemical
Conditions: for inhibition at 10 µM: read-out: % Inhib./10 uM
From the text: TITLE: B-Raf Kinase to MEK1 ELISA
PURPOSE: To discover B-Raf Kinase inhibitors that can inhibit growth of tumor cells which contain oncogenic forms of Receptor Tyrosine Kinases or K-Ras, or B-Raf kinase.
Reagents: Flag/GST-tagged recombinant human B-Raf produced in Sf9 insect cells, human non-active Mek-1-GST (recombinant protein produced in E. coli); and a phospho-MEK1 specific poly-clonal Ab from Cell Signaling Technology (cat. #9121).
B-Raf1 Kinase Assay Procedure:
B-Raf-1 is used to phosphorylate GST-MEK1. MEK1 phosphorylation is measured by a phospho-specific antibody (from Cell Signaling Technology, cat. #9121) that detects phosphorylation of two serine residues at positions 217 and 221 on MEK1.
B-Raf Assay Stock Solutions:
1. Assay Dilution Buffer (ADB): 20 mM MOPS, pH 7.2, 25 mM β-glycerol phosphate, 5 mM EGTA, 1 mM sodium orthovanadate, 1 mM dithiothreitol.
2. Magnesium/ATP Cocktail: 200 μM cold ATP and 40 mM magnesium chloride in ADB.
3. Active Kinase: Active B-Raf: used at ˜20 ng per assay point.
4. Non-active GST-MEK1: Use at 100 nM (50 nM final).
6. Anti-GST Ab (Pharmacia)
7. Anti-rabbit Ab/Europium conjugate (Wallac)
1. Add 25 μl of ADB containing B-Raf and Mek per assay (i.e. per well of a 96 well plate)
2. Add 25 μl of 0.2 mM ATP and 40 mM magnesium chloride in ADB.
3. Incubate for 60 minutes at RT in a shaking incubator.
4. Transfer this mixture to an anti-GST Ab coated 96 well plate (Nunc Immunosorb plates coated o/n with a-GST.
5. Incubate for 60 minutes at 30° C. in a shaking incubator
6. Wash 3× with TBST, add Anti-Phospho MEK1 (1:1000)
7. Incubate for 60 minutes at 30° C. in a shaking incubator
8. Wash 3× with TBST, add Anti-rabbit Ab/Europium conjugate (Wallac) (1:500)
9. Incubate for 60 minutes at 30° C. in a shaking incubator
10. Add 100 ul of Wallac Delfia Enhancement Solution and shake for 10 minutes.
11. Read plates in Wallac Victor model Plate Reader.
12. Collect data analyze in Excel for single point and IC50 determinations.
Typically Raf-1 assay is run at cpd concentrations from 10 μM to 30 nM in half log dilutions. (% inhibition is determined for each cpd concentration)

[1] = median, cpd concentrations from 10 μM to 30 nM in half log dilutions, read-out: Median IC50

T1 sequence (P15056 whole entry): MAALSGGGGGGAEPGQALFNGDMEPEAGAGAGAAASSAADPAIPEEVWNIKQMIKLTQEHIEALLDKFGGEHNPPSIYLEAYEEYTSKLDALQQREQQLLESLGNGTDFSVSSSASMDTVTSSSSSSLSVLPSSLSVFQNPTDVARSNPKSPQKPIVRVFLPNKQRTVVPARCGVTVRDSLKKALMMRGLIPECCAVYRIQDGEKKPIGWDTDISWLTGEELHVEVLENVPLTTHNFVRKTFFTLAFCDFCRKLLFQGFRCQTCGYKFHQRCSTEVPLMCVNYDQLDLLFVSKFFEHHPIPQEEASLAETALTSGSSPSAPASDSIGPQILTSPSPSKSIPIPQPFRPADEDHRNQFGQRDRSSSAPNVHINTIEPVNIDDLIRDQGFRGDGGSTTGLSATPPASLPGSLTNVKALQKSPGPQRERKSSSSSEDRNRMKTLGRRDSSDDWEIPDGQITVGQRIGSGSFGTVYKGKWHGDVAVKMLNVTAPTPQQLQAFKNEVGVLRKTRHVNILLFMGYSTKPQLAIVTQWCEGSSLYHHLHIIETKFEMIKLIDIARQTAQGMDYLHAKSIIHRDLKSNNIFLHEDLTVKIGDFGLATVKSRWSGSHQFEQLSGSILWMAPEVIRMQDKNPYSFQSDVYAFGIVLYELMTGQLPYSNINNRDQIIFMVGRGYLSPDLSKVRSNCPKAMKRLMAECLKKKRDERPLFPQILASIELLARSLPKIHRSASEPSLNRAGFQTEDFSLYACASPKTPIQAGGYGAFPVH

Molecule	IC50 [1] [nM]	% Inhib./10 uM (single point assay, 10 uM) [%]	inhibition at 10 µM [%]	IC50 [nM]
4-[7-(3-{[3-(trifluoromethyl)benzoyl]amino}phenyl)pyrazolo[1,5-a]pyrimidin-2-yl]benzyl acetate [Example 142]	> 10000	48		
CCOC(=O)c1cnn2c(-c3cccc(NC(=O)Cc4ccc5c(c4)OCO5)c3)ccnc12 [Example 100, ethyl 7-{3-[(1,3-benzodioxol-5-ylacetyl)amino]phenyl}pyrazolo[1,5-a]pyrimidine-3-carboxylate]	> 10000		2	
NC(=O)c1cnn2c(-c3cccc(NC(=O)c4cccc(C(F)(F)F)c4)c3)ccnc12 [Example 61, 7-(3-{[3-(trifluoromethyl)benzoyl]amino}phenyl)pyrazolo[1,5-a]pyrimidine-3-carboxamide]	> 10000		16	
CCOC(=O)c1c(C)nn2c(-c3cccc(NC(=O)c4cccc(C(F)(F)F)c4)c3)ccnc12 [Example 58, Ethyl 2-methyl-7-(3-{[3-(trifluoromethyl)benzoyl]amino}phenyl)pyrazolo[1,5-a]pyrimidine-3-carboxylate]	> 10000		4	
O=C(Nc1cccc(-c2ccnc3c(-c4cnn(CCN5CCCC5)c4)cnn23)c1)c1cccc(C(F)(F)F)c1 [Example 307, N-(3-{3-[1-(2-pyrrolidin-1-ylethyl)-1H-pyrazol-4-yl]pyrazolo[1,5-a]pyrimidin-7-yl}phenyl)-3-(trifluoromethyl)benzamide]				393
Cc1ccc(C(=O)Nc2cccc(-c3ccnc4c(C(N)=O)cnn34)c2)cc1C(F)(F)F [Example 67, 7-(3-{[4-methyl-3-(trifluoromethyl)benzoyl]amino}phenyl)pyrazolo[1,5-a]pyrimidine-3-carboxamide]	> 10000		6	
CCOC(=O)c1cnn2c(-c3cccc(NC(=O)c4cc(Cl)ccc4Br)c3)ccnc12 [Example 228, ethyl7-{3-[(2-bromo-5-chlorobenzoyl)amino]phenyl}pyrazolo[1,5-a]pyrimidine-3-carboxylate]	> 10000		7	
N#Cc1ccccc1-c1cnn2c(-c3cccc(NC(=O)c4cccc(C(F)(F)F)c4)c3)ccnc12 [Example 293, N-{3-[3-(2-cyanophenyl)pyrazolo[1,5-a]pyrimidin-7-yl]phenyl}-3-(trifluoromethyl)benzamide]			55	7470
Cc1ccc(-c2cnn3c(-c4cccc(NC(=O)c5cccc(C(F)(F)F)c5)c4)ccnc23)cc1 [Example 160, N-{3-[3-(4-methylphenyl)pyrazolo[1,5-a]pyrimidin-7-yl]phenyl}-3-(trifluoromethyl)benzamide]			51	
CC(=O)c1ccc(-c2cnn3c(-c4cccc(NC(=O)c5cccc(C(F)(F)F)c5)c4)ccnc23)cc1 [Example 300, N-{3-[3-(4-acetylphenyl)pyrazolo[1,5-a]pyrimidin-7-yl]phenyl}-3-(trifluoromethyl)benzamide]			71	4490
CCOC(=O)c1cnn2c(-c3cccc(NC(=O)Nc4ccc(SC)cc4)c3)ccnc12 [Example 18, ethyl 7-{3-[({[4-(methylthio)phenyl]amino}carbonyl)amino]phenyl}pyrazolo[1,5-a]pyrimidine-3-carboxylate]	> 10000		0	
CCOC(=O)c1cnn2c(-c3cccc(NC(=O)c4ccc(OC)c(Cl)c4)c3)ccnc12 [Example 73, ethyl 7-{3-[(3-chloro-4-methoxybenzoyl)amino]phenyl}pyrazolo[1,5-a]pyrimidine-3-carboxylate]	> 10000		5	
O=C(Nc1cccc(-c2ccnc3c(-c4ccncc4)cnn23)c1)c1ccc(F)c(C(F)(F)F)c1 [Example 190, 4-fluoro-N-[3-(3-pyridin-4-ylpyrazolo[1,5-a]pyrimidin-7-yl)phenyl]-3-(trifluoromethyl)benzamide]	940		68	
O=C(Nc1cccc(-c2ccnc3c(Br)cnn23)c1)Nc1cccc(C(F)(F)F)c1 [Example 166, N-[3-(3-bromopyrazolo[1,5-a]pyrimidin-7-yl)phenyl]-N′-[3-(trifluoromethyl)phenyl]urea]	1330		94	
O=C(Nc1cccc(-c2ccnc3cc(-c4ccccn4)nn23)c1)c1cccc(C(F)(F)F)c1 [Example 111, N-[3-(2-pyridin-2-ylpyrazolo[1,5-a]pyrimidin-7-yl)phenyl]-3-(trifluoromethyl)benzamide]	> 3000		24	
Cc1ccc(C(=O)Nc2cccc(-c3ccnc4c(-c5ccncc5)cnn34)c2)cc1C(F)(F)F [Example 188, 4-methyl-N-[3-(3-pyridin-4-ylpyrazolo[1,5-a]pyrimidin-7-yl)phenyl]-3-(trifluoromethyl)benzamide]			86	300
CCOC(=O)c1cnn2c(-c3cccc(NC(=O)c4cccc(C)c4)c3)ccnc12 [Example 242, ethyl 7-{3-[(3-methylbenzoyl)amino]phenyl}pyrazolo[1,5-a]pyrimidine-3-carboxylate]	> 10000		20	

Results, then the molecule that gave them:

IC50 [1] [nM]	% Inhib./10 uM (single point assay, 10 uM) [%]	inhibition at 10 µM [%]	IC50 [nM]	Molecule
200		94		O=C(Nc1cccc(-c2ccnc3cc(N4CCOCC4)nn23)c1)Nc1ccc(Cl)c(C(F)(F)F)c1 [Example 200, N-[4-chloro-3-(trifluoromethyl)phenyl]-N′-[3-(2-morpholin-4-ylpyrazolo[1,5-a]pyrimidin-7-yl)phenyl]urea]
600		76		CCOC(=O)c1cnn2c(-c3cccc(NC(=O)Nc4ccc(F)c(Cl)c4)c3)ccnc12 [Example 25, ethyl 7-[3-({[(3-chloro-4-fluorophenyl)amino]carbonyl}amino)phenyl]pyrazolo[1,5-a]pyrimidine-3-carboxylate]
410		81		CCOC(=O)c1cnn2c(-c3cc(NC(=O)c4cccc(C(F)(F)F)c4)ccc3[N+](=O)[O-])ccnc12 [Example 85, ethyl 7-(2-nitro-5-{[3-(trifluoromethyl)benzoyl]amino}phenyl)pyrazolo[1,5-a]pyrimidine-3-carboxylate]
471		76		O=C1CN(c2cc3nccc(-c4cccc(NC(=O)c5cccc(C(F)(F)F)c5)c4)n3n2)CCN1 [Example 249, N-{3-[2-(3-oxopiperazin-1-yl)pyrazolo[1,5-a]pyrimidin-7-yl]phenyl}-3-(trifluoromethyl)benzamide]
90		96		O=C(Nc1cccc(-c2ccnc3cc(N4CCOCC4)nn23)c1)c1ccc(F)c(C(F)(F)F)c1 [Example 196, 4-fluoro-N-[3-(2-morpholin-4-ylpyrazolo[1,5-a]pyrimidin-7-yl)phenyl]-3-(trifluoromethyl)benzamide]
246		80		COCCC(=O)Nc1ccc(-c2cnn3c(-c4cccc(NC(=O)c5cccc(C(F)(F)F)c5)c4)ccnc23)cc1 [Example 231, N-[3-(3-{4-[(3-methoxypropanoyl)amino]phenyl}pyrazolo[1,5-a]pyrimidin-7-yl)phenyl]-3-(trifluoromethyl)benzamide]
90		82		COCCC(=O)Nc1cccc(-c2cnn3c(-c4cccc(NC(=O)c5cccc(C(F)(F)F)c5)c4)ccnc23)c1 [Example 254, N-[3-(3-{3-[(3-methoxypropanoyl)amino]phenyl}pyrazolo[1,5-a]pyrimidin-7-yl)phenyl]-3-(trifluoromethyl)benzamide]
70		91		COc1ccc(C(=O)Nc2cccc(-c3ccnc4cc(-c5ccncc5)nn34)c2)cc1C(F)(F)F [Example 130, 4-methoxy-N-[3-(2-pyridin-4-ylpyrazolo[1,5-a]pyrimidin-7-yl)phenyl]-3-(trifluoromethyl)benzamide]
40		96		Cc1ccc(C(=O)Nc2cccc(-c3ccnc4cc(-c5ccncc5)nn34)c2)cc1C(F)(F)F [Example 134, 4-methyl-N-[3-(2-pyridin-4-ylpyrazolo[1,5-a]pyrimidin-7-yl)phenyl]-3-(trifluoromethyl)benzamide]
190		92		COCCCNC(=O)c1cnn2c(-c3cccc(NC(=O)Nc4ccc(Cl)c(C(F)(F)F)c4)c3)ccnc12 [Example 121, 7-{3-[({[4-chloro-3-(trifluoromethyl)phenyl]amino}carbonyl)amino]phenyl}-N-(3-methoxypropyl)pyrazolo[1,5-a]pyrimidine-3-carboxamide]
